According to publication PMC12671080, “Antimicrobial activities of quaternary phosphonium-type small molecular antibacterial materials against methicillin-resistant Staphylococcus aureus” (Microbiology Spectrum, 2025):
Where two headings read alike, the source gives them in different places.

Experiments:
[1] = test system: MRSA (ATCC 43300); test: MIC test, modified broth microdilution; assay type: cell-based; details: Staphylococcus aureus, 24 h
Experimental: (§1) All bacteria cells were first pre-grown overnight on blood agar plates at 37°C in a bacteriological incubator. Next, a single colony was transferred into fresh Muller Hinton broth (MHB) medium and harvested by centrifugation during the exponential growth phase, before being resuspended in sterile 0.9% physiological saline. Finally, bacterial cells were adjusted to the 0.5 McFarland standard (1.5 × 10^8 CFU/mL), and the solution was diluted in MHB to the predetermined concentrations.
(§2) MICs of all materials against MRSA, E. coli, and P. aeruginosa strains were determined using a modified broth microdilution method ([28]). Briefly, log-phase cultures (1.0 × 10⁶ CFU/mL) of each strain were inoculated into 96-well microtiter plates preloaded with serially diluted test compounds.

[2] = test system: Escherichia coli (E. coli, ATCC 25922); test: MIC test, modified broth microdilution; assay type: cell-based; details: read-out: Minimal inhibitory concentration (MIC) against E. coli
Experimental: as §1, §2

[3] = Cytotoxicity assay (CCK-8); details: mouse
Experimental: (§3) The cytotoxicity of the nanocomposite was evaluated by CCK-8 assay using a commercial kit (CK04; Dojindo, Japan). […] Cell viability was calculated according to the following formula: cell viability (%) = (Ae − Ab)/(Ac − Ab) × 100% (Ab:OD of blank wells at 450 nm, Ac:OD of control wells at 450 nm, Ae:OD of experimental wells at 450 nm).

[4] = test system: Pseudomonas aeruginosa (P. aeruginosa, ATCC 27853); test: MIC test, modified broth microdilution; assay type: cell-based; details: ATCC27853, 24 h
Experimental: as §1, §2

[5] = test system: MRSA; test: Bacterial growth curve study (OD600); assay type: cell-based, Staphylococcus aureus
Experimental: Bacterial growth curve of [PTPP]·I against MRSA cells was determined by the method reported previously ([29]). […] The bacterial solution without [PTPP]·I was used as a positive control. OD values were continuously measured for 36 h at hourly intervals to construct bacterial growth curves.

[6] = test system: L929 cells; test: Cytotoxicity assay (CCK-8); details: at the concentration of MIC, 24 h, CCK-8
Experimental: as §3

[7] = test system: MRSA; test: Time-kill kinetics assay (colony counting); assay type: cell-based, Staphylococcus aureus
Experimental: The bactericidal kinetics assay was carried out with a few minor modifications as previously stated to reveal the antimicrobial effectiveness of [PTPP]·I over time ([30]). […] Bacteria were sampled every 1 h from 0 h to 6 h, diluted in a gradient, and incubated in Luria-Bertani (LB) plates at 37°C for 24 h. Finally, plates with around 30 to 300 colonies were counted and CFU/mL for each time point was calculated to construct time-kill curves. After 3 h of treatment with different concentrations of [PTPP]·I, the bacterial solution was put into PBS for several consecutive 10-fold dilutions, and 100 µL of the mixture was uniformly spread on LB agar plates and then allowed to dry for a little while. The LB agar plates were placed in a constant-temperature incubator at 37°C for 24 h, and then the colonies on the LB agar plates were counted and photographed to observe the changes in the morphology and size of MRSA colonies.

[8] = test system: MRSA biofilm; test: Crystal violet staining of biofilm formation; assay type: cell-based, Staphylococcus aureus; details: 24 h
Experimental: Crystal violet staining was performed by the method reported previously to measure the anti-biofilm effect of [PTPP]·I ([32]). […] A parallel study was also performed with LB broth as a blank control and the MRSA suspension was cultured in an empty well as a positive control. After incubation, the non-adhered bacteria were removed by gently washing with PBS at least three times, and the adherent biofilm was fixed with methanol for 15 min and stained with 0.1% (wt/vol) crystal violet for another 15 min. Then the excess crystal violet was removed by repeatedly washing with PBS until the blank control wells were colorless. Finally, crystal violet bound to the biofilm was dissolved in 500 µL 95% ethanol and added into 96-well plates to measure the absorbance at 595 nm using a Microplate Reader (Thermo Fisher Scientific, Waltham, MA, USA).

[9] = test system: MRSA biofilm; test: Resazurin staining, metabolic activity of bacteria within biofilms; assay type: cell-based, Staphylococcus aureus; details: 24 h
Experimental: The metabolic activity of bacteria within biofilms was tested using resazurin (Sigma Aldrich, St. Louis, MO, USA), as previous report with slightly modified ([33]). Bacterial suspensions were exposed to graded concentrations (range 4–32 μg/mL) of [PTPP]·I in MHB broth for 24 h at 37°C. After incubation, the wells were washed three times with PBS and 0.01% final concentration of resazurin (Sigma Aldrich, St. Louis, MO, USA) was added, followed by an incubation for 1 h. Finally, the absorbance was detected in a Multi-mode detection platform (Molecular Devices, SpectraMax i3x) in fluorescence mode with excitation at 570 nm and emission at 600 nm. Bacterial suspensions without [PTPP]·I were set as a positive control, and pure MHB broth was set as a blank control, which were taken as 100% and 0% metabolic activity, respectively. Metabolic activity was calculated according to the following formula: metabolic activity (%) = (ΔAbs of sample − ΔAbs of blank control)/(ΔAbs of positive control − ΔAbs of blank control); ΔAbs = absorbance at 570 nm − absorbance at 600 nm.

[10] = test system: MRSA; test: Protein leakage assay (Bradford); assay type: cell-based, Staphylococcus aureus; details: 32 µg/mL (2 × MIC), 24 h
Experimental: The quantitative detection of protein leakage of bacteria was carried out by protein leakage assay using a Bradford Protein Assay Kit (P0006; Beyotime, Nantong, China). […] The bacterial solution without [PTPP]·I was used as a control. The mixture was incubated in a shaker at 37°C for 24 h and then centrifuged at 10,000 rpm at 4°C for 10 min. The supernatant was immediately collected, and protein detection reagent was added to determine the optical density (OD 600) using a Microplate Reader (Thermo Fisher Scientific, Multiskan GO) and finally converted to protein concentration values based on the standard curve.

[11] = test system: MRSA; test: SEM of bacterial morphology and bacterial biofilm; assay type: cell-based, Staphylococcus aureus; details: 24 h
Experimental: Scanning electron microscopy was used to observe bacterial morphology and bacterial biofilm formation. […] Samples were then washed with PBS and dehydrated in a graded ethanol series (30%, 50%, 70%, 80%, 90%, 95%, and 100%). After lyophilization and gold spraying, the MRSA cells were visualized by SEM (SU8100, Hitachi, Tokyo, Japan). Bacterial biofilms were subjected to SEM as previously reported with slight modifications ([31]). Cell crawling pieces were incubated in 1 mL of MRSA solution (1 × 10^6 CFU/mL) in a 24-well plate. […] After 24 h of incubation at 37°C, the samples were processed as described above and the MRSA biofilms on the cell crawling pieces were observed by scanning electron microscopy.

[12] = test system: MRSA; test: Reactive oxygen species assay (DCFH-DA); assay type: cell-based, Staphylococcus aureus; details: 0.5 h
Experimental: The level of bacterial ROS induced by [PTPP]·I was detected by DCFH-DA assay (Reactive Oxygen Species Assay Kit, S0033S, Beyotime), as previously reported ([18]). Briefly, MRSA (1 × 10^8 CFU/mL) was inoculated with 10 µM of DCFH-DA in a centrifuge tube at 37°C for 30 min for probe loading. […] The bacterial solution without [PTPP]·I was included to use as a control. The samples were washed three times with sterile saline solution (0.9% NaCl). Finally, the level of bacterial total ROS was measured as the relative fluorescence intensity of the probes, which was detected in a Multi-mode detection platform (Molecular Devices, SpectraMax i3x) in fluorescence mode with excitation at 488 nm and emission at 525 nm.

[13] = test system: MRSA; test: Agar diffusion test; assay type: cell-based, Staphylococcus aureus; details: 10 µL of 512 µg/mL on 6.0 mm disc, overnight 37°C
Experimental: Bacterial suspensions (1.5 × 10^8 CFU/mL) were spread onto Mueller-Hinton (M-H) agar plates using sterile cotton swabs to form a uniform carpet. A 10 µL solution of each of the five nanomaterials at a concentration of 512 µg/mL, along with PBS, was carefully applied to the surface of filter paper discs (6.0 mm in diameter), which were then placed onto M-H agar plates and incubated overnight at 37°C. Inhibition zones appeared as transparent halos on the agar surface.

[14] = broth microdilution, 37°C, read-out: Minimal inhibitory concentration (MIC) against MRSA
[15] = ATCC25922, broth microdilution, 37°C, 24 h
[16] = L929 cells, Cell viability of L929 cells, at the concentration of MIC, 24 h, CCK-8

CCCC[P+](c1ccccc1)(c1ccccc1)c1ccccc1 [[BTPP]·I, n-butyl-triphenyl-phosphonium iodide]
MIC [1, 14]: ≤ 32 µg/mL
MIC [2, 15]: ≤ 512 µg/mL
viability at 24 h [3, 16]: ~95%

CC[P+](c1ccccc1)(c1ccccc1)c1ccccc1 [[ETPP]·I, ethyl-triphenyl-phosphonium iodide]
MIC ([4]; broth microdilution, 37°C, 24 h, read-out: Minimal inhibitory concentration (MIC) against P. aeruginosa): 8000 µg/mL
MIC [1, 14]: ≤ 64 µg/mL
MIC [2, 15]: ≤ 512 µg/mL
viability at 24 h [3, 16]: ~90%

CC(C)[P+](c1ccccc1)(c1ccccc1)c1ccccc1 [[ITPP]·I, i-propyl-triphenyl-phosphonium iodide]
MIC [1, 14]: ≤ 64 µg/mL
MIC [2, 15]: ≤ 512 µg/mL
viability at 24 h [3, 16]: ~95%

C[P+](c1ccccc1)(c1ccccc1)c1ccccc1 [[MTPP]·I, methyl-triphenyl-phosphonium iodide]
MIC ([4]; read-out: Minimal inhibitory concentration (MIC) against P. aeruginosa, broth microdilution, 37°C, 24 h): 8000 µg/mL
MIC ([1]; read-out: Minimal inhibitory concentration (MIC) against MRSA, broth microdilution, 37°C, 24 h): 128 µg/mL
MIC ([2]; ATCC25922, 24 h): ≤ 512 µg/mL
viability at 24 h [3]: ~90%

CCCCC[P+](c1ccccc1)(c1ccccc1)c1ccccc1 [[PTPP]·I, n-pentyl-triphenyl-phosphonium iodide]
Bacterial growth (OD600) ([5]; 2 µg/mL (1/8 × MIC) to 16 µg/mL (1 × MIC)): significantly inhibited
Lag phase of MRSA growth ([5]; at 1/2 × MIC): up to 10 h
MIC [1, 14]: 16 µg/mL
MIC [2, 15]: ≤ 512 µg/mL
Cell viability of L929 cells [6]: 97%
viability at 24 h [3, 16]: > 97%
Time to achieve survival rate less than 1% ([7]; 1 × MIC): 6 h
Reduction of viable count ([7]; 1 × MIC, within 1 h): approximately 1 log10 CFU/mL
Survival rate ([7]; 4 × MIC for 2 h): less than 1%
Reduction of biofilm biomass ([8]; 1/2 × MIC): 35.4%
Reduction of biofilm biomass (biofilm inhibition rate) ([8]; 1 × MIC): 96.6%
Metabolic activity of biofilm bacteria, of positive control ([9]; 1/2 × MIC): more than 50%
Metabolic activity of intra-film bacteria, of positive control ([9]; 1 × MIC): 1%
Protein leakage relative to control group [10]: about 2.6 times
Biofilm on cell crawling pieces by SEM ([11]; 16 µg/ml (1 × MIC)): no biofilm but only the residue of bacterial disruption
Bacterial morphology by SEM ([11]; 32 µg/mL (2 × MIC)): membranes/walls of MRSA cells became rough and concave, holes appeared
ROS level elevation vs the control group ([12]; 1 × MIC): 20%
ROS level elevation vs the control group ([12]; 2 × MIC): 30%
ROS level elevation vs the control group ([12]; 4 × MIC): 141%
Inhibition halos against MRSA [13]: obvious inhibition halos
